Source: PubChem BioAssay AID192 (DTP/NCI, 2004)
Inconclusive results and toxic doses are left out.

Test system: BDF1 mice, B16 melanoma ip, median survival T/C
Assay: NCI In Vivo Anticancer Drug Screen. Data for tumor model B16 Melanoma (intraperitoneal) in B6D2F1 (BDF1) mice
Settings: endpoint: median survival time, higher = longer survival
Outline: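 The ratio T/C compares compound-treated mice with vehicle-treated controls, using survival or tumor size as the endpoint in a transplantable tumor model.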

[1] = dose: 25.0 mg/kg/injection, schedule: Q01DX009 (ip), vehicle: saline with Tween-80
[2] = dose: 50.0 mg/kg/injection, schedule: Q01DX009 (ip), vehicle: saline with Tween-80
[3] = dose: 100.0 mg/kg/injection, schedule: Q01DX009 (ip), vehicle: saline with Tween-80
[4] = dose: 50.0 mg/kg/injection, schedule: Q04DX003 (ip), vehicle: saline
[5] = dose: 100.0 mg/kg/injection, schedule: Q01DX009 (ip), vehicle: saline
[6] = dose: 200.0 mg/kg/injection, schedule: Q01DX009 (ip), vehicle: saline
[7] = dose: 50.0 mg/kg/injection, schedule: Q01DX009 (ip), vehicle: Klucel (hydroxypropylcellulose) (HPC)
[8] = dose: 100.0 mg/kg/injection, schedule: Q01DX009 (ip), vehicle: Klucel (hydroxypropylcellulose) (HPC)
[9] = dose: 25.0 mg/kg/injection, schedule: Q01DX009 (ip), vehicle: Klucel (hydroxypropylcellulose) (HPC)
[10] = dose: 25.0 mg/kg/injection, schedule: Q01DX009 (ip), vehicle: saline
[11] = dose: 6.25 mg/kg/injection, schedule: Q01DX009 (ip), vehicle: saline with Tween-80
[12] = dose: 12.5 mg/kg/injection, schedule: Q01DX009 (ip), vehicle: saline with Tween-80
[13] = dose: 12.5 mg/kg/injection, schedule: Q01DX009 (ip), vehicle: saline

`CC(Cc1ccc(O)c(O)c1)C(C)Cc1ccc(O)c(O)c1` (stereo not drawn) was tested, and the T/C (dose: 750.0 mg/kg/injection, schedule: Q01DX009 (oral), vehicle: saline) was 100 % of control and the T/C (dose: 1500.0 mg/kg/injection, schedule: Q01DX009 (oral), vehicle: saline) was 97 % of control.
With `CCCCCCCCCCCCCCCC[N+]1(CC)CCCC1` the T/C (dose: 0.1 mg/kg/injection, schedule: Q01DX009 (ip), vehicle: Klucel (hydroxypropylcellulose) (HPC)) was 102 % of control and the T/C (dose: 0.2 mg/kg/injection, schedule: Q01DX009 (ip), vehicle: Klucel (hydroxypropylcellulose) (HPC)) was 95 % of control.
`Cc1ccc(N)c(Br)c1` was tested, and the T/C [1] was 88 % of control, the T/C [2] was 88 % of control and the T/C [3] was 91 % of control.
In the case of `C1CCC(C2OCCO2)CC1`, the T/C [4] is reported as 90 % of control, the T/C [5] is reported as 113 % of control and the T/C (dose: 100.0 mg/kg/injection, schedule: Q04DX003 (ip), vehicle: saline) is reported as 95 % of control. The T/C [6] was 97 % of control and the T/C (dose: 200.0 mg/kg/injection, schedule: Q04DX003 (ip), vehicle: saline) was 90 % of control.
For `CNC(C)C1(O)Cc2c(O)c3c(c(O)c2C(OC2CC(N)C(O)C(C)O2)C1)C(=O)c1c(OC)cccc1C3=O` (stereo not drawn), the T/C (dose: 0.5 mg/kg/injection, schedule: Q01DX009 (ip), vehicle: water) was 108 % of control, the T/C (dose: 1.0 mg/kg/injection, schedule: Q01DX009 (ip), vehicle: water) was 112 % of control and the T/C (dose: 4.0 mg/kg/injection, schedule: Q01DX009 (ip), vehicle: water) was 163 % of control. The T/C (dose: 8.0 mg/kg/injection, schedule: Q01DX009 (ip), vehicle: water) was 172 % of control.
With `C[N+](C)(C)CCOC(=O)c1ccccc1` the T/C [3] was 91 % of control, the T/C (dose: 200.0 mg/kg/injection, schedule: Q01DX009 (ip), vehicle: saline with Tween-80) was 93 % of control and the T/C (dose: 400.0 mg/kg/injection, schedule: Q01DX009 (ip), vehicle: saline with Tween-80) was 91 % of control.
`Cc1ccc(Cl)cc1NC(=O)c1cccc(C(=O)Nc2cc(Cl)ccc2C)c1` was tested, and the T/C [7] was 96 % of control and the T/C [8] was 93 % of control.
`CCC/C=C/C(C)C` was tested, and the T/C [8] was 95 % of control, the T/C (dose: 200.0 mg/kg/injection, schedule: Q01DX009 (ip), vehicle: Klucel (hydroxypropylcellulose) (HPC)) was 88 % of control and the T/C (dose: 400.0 mg/kg/injection, schedule: Q01DX009 (ip), vehicle: Klucel (hydroxypropylcellulose) (HPC)) was 95 % of control.
With `C=C1CCN(c2ccc(OCC)cc2)C1=O` the T/C (dose: 4.0 mg/kg/injection, schedule: Q01DX009 (ip), vehicle: saline + alcohol) was 93 % of control, the T/C (dose: 8.0 mg/kg/injection, schedule: Q01DX009 (ip), vehicle: saline + alcohol) was 95 % of control and the T/C (dose: 16.0 mg/kg/injection, schedule: Q01DX009 (ip), vehicle: saline + alcohol) was 107 % of control. The T/C (dose: 32.0 mg/kg/injection, schedule: Q01DX009 (ip), vehicle: saline + alcohol) was 115 % of control and the T/C (dose: 64.0 mg/kg/injection, schedule: Q01DX009 (ip), vehicle: saline + alcohol) was 93 % of control.
`COC(=O)c1ccccc1NC(c1ccccn1)c1ccc2cccnc2c1O` (stereo not drawn) was tested, and the T/C [9] was 94 % of control, the T/C [7] was 108 % of control and the T/C [8] was 98 % of control.
With `C#CCOCC1CN(C)C(=O)O1` (stereo not drawn) the T/C [10] was 109 % of control, the T/C [5] was 102 % of control and the T/C [6] was 109 % of control. The T/C (dose: 400.0 mg/kg/injection, schedule: Q01DX009 (ip), vehicle: saline) was 107 % of control.
With `CC(C)(C)CC(C)(C)CC(C)(C)NCCCN` the T/C [11] was 105 % of control, the T/C [12] was 91 % of control and the T/C [1] was 86 % of control.
`FC(F)(F)c1ccc2c(c1)N(CCCN1CCN(CCN3CCCCC3)CC1)c1ccccc1S2` was tested, and the T/C (dose: 0.78 mg/kg/injection, schedule: Q01DX009 (ip), vehicle: saline) was 100 % of control, the T/C (dose: 1.56 mg/kg/injection, schedule: Q01DX009 (ip), vehicle: saline) was 105 % of control and the T/C (dose: 6.25 mg/kg/injection, schedule: Q01DX009 (ip), vehicle: saline) was 97 % of control.
With `C=CCOCC(O)CN(CC)c1ccccc1` (stereo not drawn) the T/C (dose: 75.0 mg/kg/injection, schedule: Q04DX003 (ip), vehicle: Klucel (hydroxypropylcellulose) (HPC)) was 89 % of control, the T/C (dose: 150.0 mg/kg/injection, schedule: Q04DX003 (ip), vehicle: Klucel (hydroxypropylcellulose) (HPC)) was 89 % of control and the T/C (dose: 300.0 mg/kg/injection, schedule: Q04DX003 (ip), vehicle: Klucel (hydroxypropylcellulose) (HPC)) was 98 % of control.
With `CC(=O)OCC1OC([Se][As](C)C)C(OC(C)=O)C(OC(C)=O)C1OC(C)=O` (stereo not drawn) the T/C (dose: 3.13 mg/kg/injection, schedule: Q01DX009 (ip), vehicle: saline with Tween-80) was 88 % of control, the T/C [11] was 100 % of control and the T/C [12] was 90 % of control.
`CC(Br)C(=O)NC(C)C(=O)O` (stereo not drawn) was tested, and the T/C [12] was 93 % of control, the T/C [1] was 89 % of control and the T/C [2] was 90 % of control.
With `Nc1nc(-c2ccccc2N=NN2CCN(N=Nc3ccccc3-c3nc(N)c4ccccc4n3)CC2)nc2ccccc12` the T/C (dose: 3.12 mg/kg/injection, schedule: Q01DX009 (ip), vehicle: Klucel (hydroxypropylcellulose) (HPC)) was 95 % of control, the T/C (dose: 6.25 mg/kg/injection, schedule: Q01DX009 (ip), vehicle: Klucel (hydroxypropylcellulose) (HPC)) was 92 % of control and the T/C (dose: 12.5 mg/kg/injection, schedule: Q01DX009 (ip), vehicle: Klucel (hydroxypropylcellulose) (HPC)) was 107 % of control. The T/C [9] was 107 % of control and the T/C [7] was 113 % of control.
For `C[N+](C)(C)C`, the T/C (dose: 0.37 mg/kg/injection, schedule: Q01DX009 (ip), vehicle: saline) was 112 % of control, the T/C (dose: 1.5 mg/kg/injection, schedule: Q01DX009 (ip), vehicle: saline) was 109 % of control and the T/C [13] was 95 % of control.
`CN(CCN(C)Cc1ccccc1)Cc1ccccc1` was tested, and the T/C [10] was 100 % of control and the T/C (dose: 50.0 mg/kg/injection, schedule: Q01DX009 (ip), vehicle: saline) was 92 % of control.
`CCCC[P+](CCCC)(CCCC)C(C)C` was tested, and the T/C [12] was 106 % of control and the T/C [1] was 104 % of control.
`O=C(O)C(O)C(O)C(=O)O.O=C(O)C(O)C(O)C(=O)O.[O]=[V].[O]=[V]` (stereo not drawn) was tested, and the T/C [13] was 94 % of control, the T/C (dose: 12.5 mg/kg/injection, schedule: Q04DX003 (ip), vehicle: saline) was 100 % of control and the T/C [10] was 87 % of control. For the same molecule, the T/C (dose: 25.0 mg/kg/injection, schedule: Q04DX003 (ip), vehicle: saline) was 100 % of control and the T/C [4] was 86 % of control.
With `COc1cc2nc3cc([N+](=O)[O-])ccc3c(Cl)c2cc1OC` the T/C [7] was 103 % of control and the T/C [8] was 96 % of control.
In the case of `CN(C)c1ccc(-c2cc[n+](C)cc2)cc1`, the T/C (dose: 0.5 mg/kg/injection, schedule: Q01DX009 (ip), vehicle: saline) is reported as 109 % of control, the T/C (dose: 1.0 mg/kg/injection, schedule: Q01DX009 (ip), vehicle: saline) is reported as 103 % of control and the T/C (dose: 2.0 mg/kg/injection, schedule: Q01DX009 (ip), vehicle: saline) is reported as 101 % of control. For the same molecule, the T/C (dose: 3.0 mg/kg/injection, schedule: Q01DX009 (ip), vehicle: saline) was 104 % of control and the T/C (dose: 6.0 mg/kg/injection, schedule: Q01DX009 (ip), vehicle: saline) was 92 % of control.
With `CCCCCCCCCCCCCCCCCC(=O)[O][Pb]([CH3])([CH3])[CH3]` the T/C (dose: 1.25 mg/kg/injection, schedule: Q01DX009 (ip), vehicle: Klucel (hydroxypropylcellulose) (HPC)) was 99 % of control, the T/C (dose: 2.5 mg/kg/injection, schedule: Q01DX009 (ip), vehicle: Klucel (hydroxypropylcellulose) (HPC)) was 99 % of control and the T/C (dose: 5.0 mg/kg/injection, schedule: Q01DX009 (ip), vehicle: Klucel (hydroxypropylcellulose) (HPC)) was 91 % of control.
